Measurements reported in patent US4693884A, “Technetium-99m triphosphonates and tetraphosphonates for the scintigraphic visualization of res-containing organs and lymph vessels, and a process for their preparation” (Hoechst Aktiengesellschaft, priority 1982, dated 1987).

Key:
[1] = Comparison of 99mTc TPB, 99mTc PTP and 99mTc phytate after intravenous injection to dogs; assay type: in vivo
[2] = Accumulation of phosphoric acid derivatives investigated as technetium-99m diagnostic agents (bone, liver, RES); conditions: in vivo
Description: It is possible to use phosphoric acid derivatives, particularly organic phosphonic acid derivatives, for bone scintigraphy. Many compounds have been investigated in the search for derivatives suitable as a technetium-99m diagnostic agent for bone.

[3] = in vivo; cited from earlier work
[4] = Organ distribution of 99mTc-labeled substances in rats 30 minutes after injection as a function of the amount of substance administered; assay type: in vivo; conditions: for Blood/ml / Kidneys / Liver / Lung / Remainder of body / Spleen / Thyroid / tissue uptake at 0.5 h: 30 min after injection, n = 3; for tissue uptake at 0.5 h: rat, femur, iv, 0.05 mg
Method: Assuming that 2-20 mg of TPB, ETP, PTP or phytate are administered to humans, and assuming that the weight of human is 80 kg, this corresponds to an amount administered of 25-250 μg/kg of body weight. Calculating on the basis of the body weight of rats weighing 200 g, then administration of 5-50 μg of TPB, ETP, PTP or phytate per rat exactly reflects the relationships.
Organ distribution of ^99m Tc TPB, ^99m TC ETP and ^99m Tc
phytate in rats (n = 3) 30
minutes after injection as a function of the amount of substance
(all data as a percentage of the amount of activity administered)

[5] = Example 6: distribution of activity over the organs in rats, PTP; assay type: in vivo, Sprague-Dawley rats; conditions: 30 min after injection; femoral vein; mean, n=6
Method: 3.5 g of 1,1,3,3-propanetetraphosphonic acid (PTP) are dissolved in 250 ml of double-distilled water, and the solution is adjusted to pH 6 with 1N NaOH. 210 mg of SnCl2.2H2 O, which are dissolved in 4.2 ml of 0.2N HCl, are added to this solution, and the pH is again adjusted to 6. The mixture is made up to 350 ml and individual 1 ml portions are prepared. (All the operations up to preparation of the individual portions are carried out under protective N2 gas.) The contents are frozen and freeze-dried. One unit contains 10 mg of PTP and 0.6 mg of SnCl2.2H2 O.
After storing for some weeks, the lyophilizate is dissolved in 10 ml of physiologic saline which contains 2 mCi of ^99m Tc-pertechnetate. After 30 min, Sprague-Dawley rats (n=6) weighing about 200 g each receive 0.1 ml of this solution injected into the femoral vein. The animals are sacrificed with ether 30 min after injection, and the distribution of the activity over the organs is determined. The mean figures below result (as percentage of the dose administered): […]

[6] = Example 7: elimination from the blood and renal excretion; assay type: in vivo, dog (beagle)
Method: (§1) A labeling unit prepared as in Example 6 is made ready for injection with 5 ml of physiologic saline containing 10 mCi of ^99m Tc-pertechnetate. 1 ml of this solution is injected into the ear vein of a dog (beagle) weighing 18 kg, and the change in activity with time over the abdominal cavity is followed using a gamma camera by the ROI technique. It emerges that the uptake of activity by the liver is complete after about 10 min. The lung and kidneys are not imaged.
The elimination from the blood and the renal excretion are also determined on the same animal. […] About 2.3% of the administered activity is excreted with the urine within the first 8 hours.

[7] = Example 7: change in activity over the abdominal cavity followed with gamma camera (ROI technique); assay type: in vivo, dog (beagle); conditions: ear vein
Method: as §1

[8] = second amount column (printed 50 μg)
[9] = third amount column (printed 50 μg)

## phytate [reference compound]
[1]; dog, in vivo, iv, 0.5 h
  excretion of activity with the urine: 6.6 % of the test dose
[2]
  accumulation in bone: higher
  accumulation in the RES: lower
[3]
  accumulation of activity in the RES: low compared with the products mentioned above

## O=P(O)(O)C(CC(P(=O)(O)O)P(=O)(O)O)P(=O)(O)O [PTP, propane-1,1,3,3-tetraphosphonic acid]
[4]; (50 μg)
  Blood/ml: 0.055 percentage of the amount of ac
  Kidneys: 0.16 percentage of the amount of activity administered
  Liver: 91.8 percentage of the amount of activity administered
  Lung: 0.30 percentage of the amount of activity administered
  Remainder of body: 9.3 percentage of the amount of activity administered
  Spleen: 1.31 percentage of the amount of activity administered
  Thyroid: 0.05 percentage of the amount of activity administered
  tissue uptake at 0.5 h: 0.052 %ID/g
[4]; [8]
  Blood/ml: 0.11 percentage of the amount of ac
  Kidneys: 0.37 percentage of the amount of activity administered
  Liver: 84.2 percentage of the amount of activity administered
  Lung: 0.45 percentage of the amount of activity administered
  Remainder of body: 16.0 percentage of the amount of activity administered
  Spleen: 1.23 percentage of the amount of activity administered
  Thyroid: 0.04 percentage of the amount of activity administered
  tissue uptake at 0.5 h: 0.088 %ID/g
[4]; [9]
  Blood/ml: 0.086 percentage of the amount of ac
  Kidneys: 0.38 percentage of the amount of activity administered
  Liver: 82.7 percentage of the amount of activity administered
  Lung: 0.43 percentage of the amount of activity administered
  Remainder of body: 18.4 percentage of the amount of activity administered
  Spleen: 1.10 percentage of the amount of activity administered
  Thyroid: 0.05 percentage of the amount of activity administered
  tissue uptake at 0.5 h: 0.089 %ID/g
[4]; all amounts of substance investigated
  accumulation of activity in the kidneys, blood, femur and remainder of the body compared with phytate: clearly lower than with phytate
[4]; deduction from the animal experiments
  suitability as diagnostic agent for visualization of RES-containing organs compared with 99mTc phytate: unambiguously superior
[1]; 30 min after injection, intravenous, dogs
  excretion of activity with the urine: 0.05 % of the test dose
[1]; intravenous, dogs
  excretion of activity with the urine, compared with phytate: markedly less
[1]; intravenous, dogs, compared with phytate
  decrease in activity via the liver after accumulation in the liver is complete: slower
[2]
  accumulation in bone: virtually not at all
  accumulation in the liver: very preferentially accumulated in the liver
[5]
  Kidneys: 0.067 percentage of the dose adminis
  Liver: 94.0 percentage of the dose adminis
  Remainder of body: 4.8 percentage of the dose adminis
  Spleen: 1.9 percentage of the dose adminis
  Thyroid: 0.034 percentage of the dose adminis
  bladder + urine: 0.023 percentage of the dose adminis
  blood (1 ml): 0.083 percentage of the dose adminis
  bone: 0.7 percentage of the dose adminis
  lungs: 0.23 percentage of the dose adminis
[6]; ear vein, first phase
  clearance from the blood, half-life t1: 3.25 min
  share of phase t1 in clearance from the blood: 97%
[6]; ear vein, second phase
  clearance from the blood, half-life t2: 20.3 min
  share of phase t2 in clearance from the blood: 2.4%
[6]; ear vein, third phase
  clearance from the blood, half-life t3: 500 min
  share of phase t3 in clearance from the blood: 0.6%
[6]; within the first 8 hours
  administered activity excreted with the urine: About 2.3 % of the administered activity
[7]
  time at which uptake of activity by the liver is complete: about 10 min
